Measured values taken from US7192746B2, “α-Isomaltosyltransferase, process for producing the same and use thereof” (Kabushiki Kaisha Hayashibara Seibutsu Kagaku Kenkyujo, priority 2000, dated 2007).

Key:
Type in all cases: biochemical
[1] = system: α-isomaltosyl-transferring enzyme from Bacillus globisporus C11; assay: Formation of cyclotetrasaccharide from components A, B and C; conditions: Enzyme of Strain C11; for Saccharide composition, remaining Substrate: 1% (w/v) substrate, pH 6.0, 1 unit/g substrate; for Saccharide composition, remaining Substrate / Saccharide composition, Cyclotetrasaccharide / Saccharide composition, Glucose / Saccharide composition, Others: 35° C., 8 hours
Method: (§1) Using a purified α-isomaltosyl-transferring enzyme, the formation of cyclotetrasaccharide from the above-identified components A, B and C was examined as follows: One percent (w/v) of an aqueous solution (pH 6.0) of the component A (3-O-α-isomaltosylpanose represented by Chemical Formula 1), the component B (4-O-α-isomaltosylpanose represented by Chemical Formula 2), or the component C (1-O-α-isomaltosyl-β-panoside represented by Chemical Formula 3) was prepared into a substrate solution. To each of the resulting solutions was added one unit/g substrate of a purified specimen of α-isomaltosyl-transferring enzyme from Bacillus globisporus C9 obtained by the method in Experiment 4, or Bacillus globisporus C11 obtained by the method in Experiment 7, followed by enzymatic reaction at 35° C. for eight hours. Thereafter, the resulting mixtures were analyzed on HPLC for saccharide composition (%).

[2] = system: α-isomaltosyl-transferring enzyme from Bacillus globisporus C9; assay: as above; conditions: Enzyme of Strain C9; for Saccharide composition, remaining Substrate: 1% (w/v) substrate, pH 6.0, 1 unit/g substrate; for Saccharide composition, remaining Substrate / Saccharide composition, Cyclotetrasaccharide / Saccharide composition, Glucose / Saccharide composition, Others: 35° C., 8 hours
Method: as §1

[3] = system: α-isomaltosyl-transferring enzyme from Bacillus globisporus C11; assay: Formation of reducing power from high molecular glucans; conditions: Enzyme of Strain C11
Method: (§2) In the above experiment, no detectable amount of a lower molecular weight saccharide such as cyclotetrasaccharide detectable on TLC was formed from soluble starch, pullulan and dextran as high molecular glucans. The following test was carried out to confirm that the α-isomaltosyl-transferring enzyme of the present invention neither increase the reducing power of the above high molecular glucans nor hydrolyze them. To a solution of soluble starch, pullulan or dextran was added 12 units/g substrate of a purified specimen of α-isomaltosyl-transferring enzyme from either Bacillus globisporus C9 obtained by the method in Experiment 4, Bacillus globisporus C11 obtained by the method in Experiment 7, Bacillus globisporus N75 obtained by the method in Experiment 11, or Arthrobacter ramosus S1 obtained by the method in Experiment 15. […] The reducing saccharide contents and the total sugar contents in the resulting reaction mixtures after the enzymatic reactions were respectively quantified by the Somogyi-Nelson's method and the anthrone-sulfuric acid reaction method. The percentage of forming reducing power was calculated by the following equation, and the results are in Table 13:
(§3) [formula] [formula] AR: Reducing sugar content after enzymatic reaction. AT: Total sugar content after enzymatic reaction. BR: Reducing sugar content before enzymatic reaction. BT: Total sugar content before enzymatic reaction.

[4] = system: α-isomaltosyl-transferring enzyme from Bacillus globisporus C9; assay: as above; conditions: Enzyme of Strain C9
Method: as §2, §3

[5] = system: α-isomaltosyl-transferring enzyme from Bacillus globisporus C11; assay: Action on saccharides (substrates, TLC); design: key: −: there was found no substrate change before and after the enzymatic reaction; +: there were found both the reduction of substrate and the formation of cyclotetrasaccharide after the enzymatic reaction; conditions: 2 units/g substrate, 2% (w/v) substrate, 30° C., pH 6.0, 24 hours
In short: (§4)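 Purified enzyme (2 units/g substrate) was incubated with each saccharide at 2% (w/v), pH 6.0, 30° C. for 24 hours. Reaction mixtures before and after incubation were run on silica gel TLC in n-butanol/pyridine/water (6:4:1), with total sugars stained by sulfuric acid-methanol and reducing sugars by diphenylamine-aniline.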

[6] = system: α-isomaltosyl-transferring enzyme from Bacillus globisporus N75; assay: Action on saccharides (substrates, TLC); design: key: −: there was found no substrate change before and after the enzymatic reaction; +: there were found both the reduction of substrate and the formation of cyclotetrasaccharide after the enzymatic reaction; conditions: 2 units/g substrate, 2% (w/v) substrate, 30° C., pH 6.0, 24 hours
In short: as §4

[7] = system: α-isomaltosyl-transferring enzyme from Bacillus globisporus C9; assay: Action on saccharides (substrates, TLC); design: key: −: there was found no substrate change before and after the enzymatic reaction; +: there were found both the reduction of substrate and the formation of cyclotetrasaccharide after the enzymatic reaction; conditions: 2 units/g substrate, 2% (w/v) substrate, 30° C., pH 6.0, 24 hours
In short: as §4

[8] = system: α-isomaltosyl-transferring enzyme from Arthrobacter globiformis A19; assay: Action on saccharides (substrates, TLC); design: key: −: there was found no substrate change before and after the enzymatic reaction; +: there were found both the reduction of substrate and the formation of cyclotetrasaccharide after the enzymatic reaction; conditions: partially purified enzyme, 2 units/g substrate, 2% (w/v) substrate, 30° C., pH 6.0, 24 hours
In short: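 Purified enzyme (partially purified for A. globiformis A19) at 2 units/g substrate acted on each saccharide at 2% (w/v), pH 6.0, 30° C., 24 h. Pre- and post-reaction mixtures ran on silica gel TLC in n-butanol/pyridine/water (6:4:1). Total sugars were stained by sulfuric acid-methanol and reducing sugars by diphenylamine-aniline.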

[9] = system: α-isomaltosyl-transferring enzyme from Arthrobacter ramosus S1; assay: Action on saccharides (substrates, TLC); design: key: −: there was found no substrate change before and after the enzymatic reaction; +: there were found both the reduction of substrate and the formation of cyclotetrasaccharide after the enzymatic reaction; conditions: 2 units/g substrate, 2% (w/v) substrate, 30° C., pH 6.0, 24 hours
In short: as §4

[10] = system: α-isomaltosyl-transferring enzyme from Bacillus globisporus N75; assay: Formation of reducing power from high molecular glucans; conditions: Enzyme of Strain N75
Method: (§5) In the above experiment, no detectable amount of a lower molecular weight saccharide such as cyclotetrasaccharide detectable on TLC was formed from soluble starch, pullulan and dextran as high molecular glucans. The following test was carried out to confirm that the α-isomaltosyl-transferring enzyme of the present invention neither increase the reducing power of the above high molecular glucans nor hydrolyze them. To a solution of soluble starch, pullulan or dextran was added 12 units/g substrate of a purified specimen of α-isomaltosyl-transferring enzyme from either Bacillus globisporus C9 obtained by the method in Experiment 4, Bacillus globisporus C11 obtained by the method in Experiment 7, Bacillus globisporus N75 obtained by the method in Experiment 11, or Arthrobacter ramosus S1 obtained by the method in Experiment 15. The resulting each solution was adjusted to give a substrate concentration of one percent (w/v) and incubated at 35° C. and pH 6.0 for four hours. The reducing saccharide contents and the total sugar contents in the resulting reaction mixtures after the enzymatic reactions were respectively quantified by the Somogyi-Nelson's method and the anthrone-sulfuric acid reaction method. The percentage of forming reducing power was calculated by the following equation, and the results are in Table 13:
as §3

[11] = system: α-isomaltosyl-transferring enzyme from Arthrobacter ramosus S1; assay: as above; conditions: printed Enzyme of Strain N75 a second time
Method: as §5, §3

[12] = 0 hr, 12 units/g substrate, 1% (w/v), 35° C., pH 6.0

| Compound | Percentage of forming reducing power [3, 12] | Percentage of forming reducing power ([3]; 1 hr) | Percentage of forming reducing power ([3]; 2 hr) | Percentage of forming reducing power ([3]; 3 hr) | Percentage of forming reducing power ([3]; 4 hr) | Percentage of forming reducing power [4, 12] | Percentage of forming reducing power ([4]; 1 hr) | Percentage of forming reducing power ([4]; 2 hr) | Percentage of forming reducing power ([4]; 3 hr) | Percentage of forming reducing power ([4]; 4 hr) | Enzymatic action for forming cyclotetrasaccharide, Enzyme of Strain C11 [5] | Enzymatic action for forming cyclotetrasaccharide, Enzyme of Strain N75 [6] | Enzymatic action for forming cyclotetrasaccharide, Enzyme of Strain C9 [7] | Enzymatic action for forming cyclotetrasaccharide, Enzyme of Strain A19 [8] | Enzymatic action for forming cyclotetrasaccharide, Enzyme of Strain S1 [9] | Percentage of forming reducing power [10, 12] | Percentage of forming reducing power ([10]; 1 hr) | Percentage of forming reducing power ([10]; 2 hr) | Percentage of forming reducing power ([10]; 3 hr) | Percentage of forming reducing power ([10]; 4 hr) | also measured |
| --- | --- | --- | --- | --- | --- | --- | --- | --- | --- | --- | --- | --- | --- | --- | --- | --- | --- | --- | --- | --- | --- |
| OC[C@H]1O[C@H](OC[C@H]2O[C@H](O[C@@H]3[C@@H](O)[C@@H](OC[C@H]4O[C@H](O[C@H]5[C@H](O)[C@@H](O)C(O)O[C@@H]5CO)[C@H](O)[C@@H](O)[C@@H]4O)O[C@H](CO)[C@H]3O)[C@H](O)[C@@H](O)[C@@H]2O)[C@H](O)[C@@H](O)[C@@H]1O (stereo partly drawn) [Component A, 3-O-α-isomaltosylpanose] |  |  |  |  |  |  |  |  |  |  |  |  |  |  |  |  |  |  |  |  | Saccharide composition, remaining Substrate [1]: 9.0%; Saccharide composition, Cyclotetrasaccharide [1]: 67.4%; Saccharide composition, Glucose [1]: 17.4%; Saccharide composition, Others [1]: 6.2%; Molar ratio of the formed glucose and cyclotetrasaccharide: cyclotetrasaccharide ([1]; numeral in parenthesis): (1.08); Molar ratio of the formed glucose and cyclotetrasaccharide: glucose ([1]; numeral in parenthesis): (1.00); Saccharide composition, remaining Substrate [2]: 9.3%; Saccharide composition, Cyclotetrasaccharide [2]: 67.6%; Saccharide composition, Glucose [2]: 17.2%; Saccharide composition, Others [2]: 5.9%; Molar ratio of the formed glucose and cyclotetrasaccharide: cyclotetrasaccharide ([2]; numeral in parenthesis): (1.09); Molar ratio of the formed glucose and cyclotetrasaccharide: glucose ([2]; numeral in parenthesis): (1.00) |
| OC[C@H]1O[C@H](OC[C@H]2O[C@H](O[C@H]3[C@H](O)[C@@H](O)[C@@H](OC[C@H]4O[C@H](O[C@H]5[C@H](O)[C@@H](O)C(O)O[C@@H]5CO)[C@H](O)[C@@H](O)[C@@H]4O)O[C@@H]3CO)[C@H](O)[C@@H](O)[C@@H]2O)[C@H](O)[C@@H](O)[C@@H]1O (stereo partly drawn) [Component B, 4-O-α-isomaltosylpanose] |  |  |  |  |  |  |  |  |  |  |  |  |  |  |  |  |  |  |  |  | Saccharide composition, remaining Substrate [1]: 77.0%; Saccharide composition, Cyclotetrasaccharide [1]: 5.0%; Saccharide composition, Glucose [1]: 0.6%; Saccharide composition, Others [1]: 17.4%; Saccharide composition, remaining Substrate [2]: 77.1%; Saccharide composition, Cyclotetrasaccharide [2]: 5.1%; Saccharide composition, Glucose [2]: 0.7%; Saccharide composition, Others [2]: 17.1% |
| dextran | 0.0% | 0.0% | 0.0% | 0.0% | 0.0% | 0.0% | 0.0% | 0.0% | 0.1% | 0.0% | − | − | − | − | − | 0.0% | 0.0% | 0.0% | 0.0% | 0.0% | Percentage of forming reducing power [11, 12]: 0.0%; Percentage of forming reducing power ([11]; 1 hr): 0.0%; Percentage of forming reducing power ([11]; 2 hr): 0.0%; Percentage of forming reducing power ([11]; 3 hr): 0.0%; Percentage of forming reducing power ([11]; 4 hr): 0.0% |
| pullulan | 0.0% | 0.0% | 0.0% | 0.0% | 0.0% | 0.0% | 0.0% | 0.0% | 0.0% | 0.0% | − | − | − | − | − | 0.0% | 0.0% | 0.0% | 0.0% | 0.0% | Percentage of forming reducing power [11, 12]: 0.0%; Percentage of forming reducing power ([11]; 1 hr): 0.0%; Percentage of forming reducing power ([11]; 2 hr): 0.0%; Percentage of forming reducing power ([11]; 3 hr): 0.0%; Percentage of forming reducing power ([11]; 4 hr): 0.0% |
| soluble starch | 0.0% | 0.1% | 0.0% | 0.0% | 0.0% | 0.0% | 0.0% | 0.0% | 0.0% | 0.0% | − | − | − | − | − | 0.0% | 0.0% | 0.0% | 0.0% | 0.0% | Percentage of forming reducing power [11, 12]: 0.0%; Percentage of forming reducing power ([11]; 1 hr): 0.0%; Percentage of forming reducing power ([11]; 2 hr): 0.0%; Percentage of forming reducing power ([11]; 3 hr): 0.0%; Percentage of forming reducing power ([11]; 4 hr): 0.0% |
